Measurements taken from patent US20250163057A1, “DCN-1 MODULATING COMPOUNDS AND METHODS OF USE THEREOF” (Cellarity, Inc., priority 2023, published 2025).
Like-named read-outs stand apart in the source and are kept apart here.

How the values were obtained:
[1] = target: DCN1 protein (Homo sapiens (Human), UniProt Q96GG9); assay: Intact Protein MS Analysis with the RapidFire-TOF System (covalent adduct formation); format: binding; conditions: MS Emax; 400 nM DCN1, 3 hours at room temperature
How it was run: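 Tag-cleaved human DCN1 (400 nM) expressed in E. coli, in 25 mM Tris-HCl, 200 mM NaCl, 1 mM DTT, was incubated with 11 compound concentrations for 3 h at room temperature and quenched with 0.2% formic acid. Intact-protein Q-TOF MS with deconvolution detected the compound adduct mass.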

[2] = tested on: Cullin-3 (CUL3) neddylation; assay: AlphaLISA assay for Cullin-3 (CUL3) neddylation in TF 1 cells; format: cell-based; conditions: Homo sapiens, TF-1, 3 h, 3 hours treatment
How it was run: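 Neddylated CUL3 was quantified by AlphaLISA in lysates of TF 1 cells exposed for 3 h to test compound in IMDM without supplements. Percent inhibition set between vehicle and 1 μM DI-1548 positive control; IC50 derived by Hill-equation fitting of dose-response curves.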

[3] = target: DCN1 (DCUND1) protein PONY domain (Homo sapiens (Human), UniProt Q96GG9); assay: TR-FRET assay, DCN1 binding with FAM-labeled probe
How it was run: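 First, the E. coli-derived PONY domain was biotinylated and paired with streptavidin Tb cryptate. Compounds in 0.1% DMSO were then added to DCN1 and FAM-probe (5 nM/20 nM, or 0.31 nM/900 nM total with 800 nM unlabelled) in TritonX, 200 mM NaCl buffer. Finally, TR-FRET ratios were recorded at 1, 5 and 24 hrs.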

[4] = tested on: fetal hemoglobin gene HBG1; assay: HBG1 Nanostring Assay in CD34+ HSPC erythroid differentiation culture; format: cell-based, human; conditions: for EC50: Homo sapiens, 240 h, HBG1 induction, Day10 of erythroid differentiation; for Nanostring Ymax obs (%): relative to a control compound (C1)
How it was run: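 HBG1 counts came from direct nCounter hybridization (67° C, 22 h) of day-10 lysates, normalized to ERCC positive controls and a housekeeping gene, giving EC50 and Ymax versus a reference compound. Compounds in 0.1% DMSO were present from day −2 while cells underwent EPO/SCF/IL-3 erythroid differentiation, with IL-3 dropped at day 7, at 37° C.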

[5] = 24 hr after treatment with compound, read-out: TR FRET IC50 24 hr
[6] = TR FRET IC50 1 hr (nM), 1 hr after treatment with compound
[7] = read-out: TR FRET IC50 1 hr, 1 hr after treatment with compound

DCN1 (DCUND1) protein PONY domain, sequence (Q96GG9 60-248): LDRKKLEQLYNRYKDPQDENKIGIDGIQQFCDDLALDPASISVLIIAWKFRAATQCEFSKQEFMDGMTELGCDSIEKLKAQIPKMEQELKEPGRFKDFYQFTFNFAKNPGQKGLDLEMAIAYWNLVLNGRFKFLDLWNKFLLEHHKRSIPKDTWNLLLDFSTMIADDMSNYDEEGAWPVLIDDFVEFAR
DCN1 protein, sequence (Q96GG9 whole entry): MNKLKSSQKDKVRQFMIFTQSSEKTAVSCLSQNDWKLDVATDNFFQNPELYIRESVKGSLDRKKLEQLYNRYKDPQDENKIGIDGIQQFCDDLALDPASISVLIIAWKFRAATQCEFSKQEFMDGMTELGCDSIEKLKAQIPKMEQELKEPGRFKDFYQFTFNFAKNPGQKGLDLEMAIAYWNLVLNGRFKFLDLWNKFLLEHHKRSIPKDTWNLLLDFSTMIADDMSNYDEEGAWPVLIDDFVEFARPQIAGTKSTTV

Compound	% Adduct Formation [1]	IC50 [2] [nM]	IC50 [3, 5] [nM]	IC50 [3, 6] [nM]	EC50 [4] [nM]	Nanostring Ymax obs (%) [4]	IC50 [3, 7] [nM]
CC#CC(=O)Nc1nn(-c2ccccc2)c2c1[C@H](c1ccc(F)cc1)[C@H](NC(=O)c1cccc(C(F)(F)F)c1)C(=O)N2CC (racemic) [Compound I-51]	+ (MS Emax % adduct formation greater than or equal to 0.0 and less than or equal to 30.0)	100 to 1000	200 to 1000	200 to 1000	100 to 1000	+++ (Nanostring Ymax greater than 100.0)	–
C=C(C(=O)O)c1nn(-c2ccccc2)c2c1[C@H](c1ccc(F)cc1)[C@H](NC(=O)c1cccc(C(F)(F)F)c1)C(=O)N2CC (racemic) [Compound I-53, rac-2-((4R,5R)-7-ethyl-4-(4-fluorophenyl)-6-oxo-1-phenyl-5-(3-(trifluoromethyl)benzamido)-4,5,6,7-tetrahydro-1H-pyrazolo[3,4-b]pyridine-3-yl)acrylic acid]	++ (MS Emax % adduct formation greater than 30.0 and less than or equal to 80.0)	100 to 1000	200 to 1000	1000 to 3000	> 1000	+++ (Nanostring Ymax greater than 100.0)	–
C=C(CN1CCOCC1)C(=O)NCc1nn(-c2ccccc2)c2c1[C@@H](c1ccc(F)cc1)[C@H](NC(=O)c1cccc(C(F)(F)F)c1)C(=O)N2CC (racemic) [Compound I-58]	+ (MS Emax % adduct formation greater than or equal to 0.0 and less than or equal to 30.0)	≤ 100	≤ 200	–	> 1000	+ (Nanostring Ymax greater than or equal to 0.0 and less than or equal to 50.0)	≤ 200
C/C=C/C(=O)Nc1nn(-c2ccccc2)c2c1[C@H](c1ccc(F)cc1)[C@H](NC(=O)c1cccc(C(F)(F)F)c1)C(=O)N2CC (racemic) [Compound I-62]	+ (MS Emax % adduct formation greater than or equal to 0.0 and less than or equal to 30.0)	100 to 1000	200 to 1000	–	> 1000	+ (Nanostring Ymax greater than or equal to 0.0 and less than or equal to 50.0)	≤ 200
CCN1C(=O)[C@@H](NC(=O)c2cccc(C(F)(F)F)c2)[C@@H](c2ccc(F)cc2)c2c(NC(=O)C3=CCCC3)nn(-c3ccccc3)c21 (racemic) [Compound I-65]	+ (MS Emax % adduct formation greater than or equal to 0.0 and less than or equal to 30.0)	≤ 100	200 to 1000	–	> 1000	++ (Nanostring Ymax greater than 50.0 and less than or equal to 100.0)	≤ 200
C=C(CN1CCOCC1)C(=O)Nc1nn(-c2ccccc2)c2c1[C@H](c1ccc(F)cc1)[C@H](NC(=O)c1cccc(C(F)(F)F)c1)C(=O)N2CC (racemic) [Compound I-75]	+++ (MS Emax % adduct formation greater than 80.0 and less than or equal to 100.0)	≤ 100	≤ 200	–	–	+++ (Nanostring Ymax greater than 100.0)	≤ 200
CCN1C(=O)[C@@H](NC(=O)c2cccc(C(F)(F)F)c2)[C@H](c2ccc(F)cc2)c2c(CNC(=O)C3=C(C(=O)OC)CC3)nn(-c3ccccc3)c21 (racemic) [Compound I-97]	+ (MS Emax % adduct formation greater than or equal to 0.0 and less than or equal to 30.0)	≤ 100	200 to 1000	–	100 to 1000	++ (Nanostring Ymax greater than 50.0 and less than or equal to 100.0)	≤ 200
C=C(CC(=O)OC)C(=O)NCc1nn(-c2ccccc2)c2c1[C@H](c1ccc(F)cc1)[C@H](NC(=O)c1cccc(C(F)(F)F)c1)C(=O)N2CC (racemic) [Compound I-103]	+ (MS Emax % adduct formation greater than or equal to 0.0 and less than or equal to 30.0)	> 1000	200 to 1000	200 to 1000	100 to 1000	+ (Nanostring Ymax greater than or equal to 0.0 and less than or equal to 50.0)	–
CCN1C(=O)[C@@H](NC(=O)c2cccc(C(F)(F)F)c2)[C@@H](c2ccc(F)cc2)c2c(CN(C)C(=O)/C=C/C(=O)OC)nn(-c3ccccc3)c21 (racemic) [Compound I-107, methyl (˜{E})-4-[[(4˜{R},5˜{S})-7-ethyl-4-(4-fluorophenyl)-6-oxo-1-phenyl-5-[[3-(trifluoromethyl)benzoyl]amino]-4,5-dihydropyrazolo[3,4-b]pyridine-3-yl]methyl-methyl-amino]-4-oxo-but-2-enoate]	+++ (MS Emax % adduct formation greater than 80.0 and less than or equal to 100.0)	≤ 100	≤ 200	–	≤ 100	+++ (Nanostring Ymax greater than 100.0)	≤ 200
CCN1C(=O)[C@@H](NC(=O)c2cccc(C(F)(F)F)c2)[C@@H](c2ccc(F)cc2)c2c(CN3CC=CS3(=O)=O)nn(-c3ccccc3)c21 (racemic) [Compound I-110]	+ (MS Emax % adduct formation greater than or equal to 0.0 and less than or equal to 30.0)	100 to 1000	200 to 1000	200 to 1000	> 1000	+ (Nanostring Ymax greater than or equal to 0.0 and less than or equal to 50.0)	–
C=CC(=O)Nc1nn(-c2ccccc2)c2c1[C@H](c1ccc(F)cc1)[C@H](NC(=O)c1cccc(C(F)(F)F)c1)C(=O)N2CC (racemic) [Compound I-122]	++ (MS Emax % adduct formation greater than 30.0 and less than or equal to 80.0)	100 to 1000	≤ 200	–	> 1000	++ (Nanostring Ymax greater than 50.0 and less than or equal to 100.0)	≤ 200
CCN1C(=O)[C@@H](NC(=O)c2cccc(C(F)(F)F)c2)[C@@H](c2ccc(F)cc2)c2c(NC(=O)/C=C/C(=O)OC)nn(-c3ccccc3)c21 (racemic) [Compound I-136]	+++ (MS Emax % adduct formation greater than 80.0 and less than or equal to 100.0)	≤ 100	–	200 to 1000	> 1000	+ (Nanostring Ymax greater than or equal to 0.0 and less than or equal to 50.0)	–
CCN1C(=O)[C@@H](NC(=O)c2cccc(C(F)(F)F)c2)[C@@H](c2ccc(F)cc2)c2c(CNC(=O)CC#N)nn(-c3ccccc3)c21 (racemic) [Compound I-147, rac-N-((4R,5R)-3-((2-cyanoacetamido)methyl)-7-ethyl-4-(4-fluorophenyl)-6-oxo-1-phenyl-4,5,6,7-tetrahydro-1H-pyrazolo[3,4-b]pyridine-5-yl)-3-(trifluoromethyl)benzamide]	+ (MS Emax % adduct formation greater than or equal to 0.0 and less than or equal to 30.0)	100 to 1000	200 to 1000	1000 to 3000	> 1000	+ (Nanostring Ymax greater than or equal to 0.0 and less than or equal to 50.0)	–
CCN1C(=O)[C@@H](NC(=O)c2cccc(C(F)(F)F)c2)[C@@H](c2ccc(F)cc2)c2c(NC(=O)CCl)nn(-c3ccccc3)c21 (racemic) [Compound I-161]	+ (MS Emax % adduct formation greater than or equal to 0.0 and less than or equal to 30.0)	≤ 100	≤ 200	1000 to 3000	100 to 1000	++ (Nanostring Ymax greater than 50.0 and less than or equal to 100.0)	–
CCN1C(=O)[C@@H](NC(=O)c2cccc(C(F)(F)F)c2)[C@@H](c2ccc(F)cc2)c2c(C(=O)N3CC(F)(F)C[C@H]3C#N)nn(-c3ccccc3)c21 (racemic) [Compound I-251, N-((4RS,5RS)-3-(I-2-cyano-4,4-difluoropyrrolidine-1-carbonyl)-7-ethyl-4-(4-fluorophenyl)-6-oxo-1-phenyl-4,5,6,7-tetrahydro-1H-pyrazolo[3,4-b]pyridine-5-yl)-3-(trifluoromethyl)benzamide]	+++ (MS Emax % adduct formation greater than 80.0 and less than or equal to 100.0)	≤ 100	≤ 200	≤ 200	100 to 1000	++ (Nanostring Ymax greater than 50.0 and less than or equal to 100.0)	–
CCN1C(=O)[C@@H](NC(=O)c2cccc(C(F)(F)F)c2)[C@@H](C2CC2)c2c(C(=O)N3CCNC[C@@H]3C#N)nn(C3CCOCC3)c21 (single isomer, unassigned) [Compound I-371]	+++ (MS Emax % adduct formation greater than 80.0 and less than or equal to 100.0)	≤ 100	≤ 200	200 to 1000	100 to 1000	++ (Nanostring Ymax greater than 50.0 and less than or equal to 100.0)	–
